Data as given in ChEMBL document CHEMBL1136669, “Synthesis of aza and oxaglutamyl-p-nitroanilide derivatives and their kinetic studies with gamma-glutamyltranspeptidase” (Bioorg Med Chem Lett, 2003).
Blank lines part the entries; values can stand above or below the compound they belong to. Activity calls are given as the source filed them. No cut-off for these calls is given here.

Experiments:
[1] = target: Glutathione hydrolase 1 proenzyme (Rattus norvegicus) (UniProt P07314); experiment: Kinetic constant acting as donor substrate for gamma-GGT (Glutamyltranspeptidase)-mediated transpeptidation was determined in rat kidney (units are 10e3/min); assay type: tissue-based
Glutathione hydrolase 1 proenzyme (Rattus norvegicus), sequence (P07314 1-379 limits assumed): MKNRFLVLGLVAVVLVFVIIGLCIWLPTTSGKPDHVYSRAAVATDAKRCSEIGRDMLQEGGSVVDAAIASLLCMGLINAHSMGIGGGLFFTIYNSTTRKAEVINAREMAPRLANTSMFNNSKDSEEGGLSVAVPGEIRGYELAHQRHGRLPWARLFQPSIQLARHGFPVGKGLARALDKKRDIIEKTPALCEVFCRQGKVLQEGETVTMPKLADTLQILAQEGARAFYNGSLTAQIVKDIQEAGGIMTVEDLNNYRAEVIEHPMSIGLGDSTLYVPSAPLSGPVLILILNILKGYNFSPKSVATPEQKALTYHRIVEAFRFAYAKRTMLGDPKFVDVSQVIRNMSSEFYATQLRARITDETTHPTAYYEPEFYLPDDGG
Glutathione hydrolase 1 proenzyme (Rattus norvegicus), sequence (P07314 380-568 limits assumed): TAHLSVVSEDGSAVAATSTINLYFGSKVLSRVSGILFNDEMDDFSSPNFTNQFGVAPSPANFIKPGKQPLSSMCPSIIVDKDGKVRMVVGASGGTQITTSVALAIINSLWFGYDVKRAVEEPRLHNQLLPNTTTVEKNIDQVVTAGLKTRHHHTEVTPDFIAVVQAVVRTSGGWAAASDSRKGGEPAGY

[2] = Ratio of kinetic constant (Kcat/KM) acting as donor substrate for gamma-GGT (Glutamyltranspeptidase)-mediated transpeptidation was determined in rat kidney
[3] = target: Glutathione hydrolase 1 proenzyme (Rattus norvegicus) (UniProt P07314); experiment: Kinetic constant acting as acceptor substrate for gamma-GGT (Glutamyltranspeptidase)-mediated transpeptidation was determined in rat kidney (units are 10e3/min); assay type: tissue-based
[4] = Ratio of kinetic constant (Kcat/KM) acting as acceptor substrate for gamma-GGT (Glutamyltranspeptidase)-mediated transpeptidation was determined in rat kidney; set-up: unit not given here
[5] = target: Glutathione hydrolase 1 proenzyme (Rattus norvegicus) (UniProt P07314); experiment: Kinetic constant acting as donor substrate for gamma-GGT (Glutamyltranspeptidase)-mediated transpeptidation was determined (units are 10e3/min); Inactive at 2 mM with 33.8 mU of GGT in rat kidney; assay type: tissue-based
[6] = Ratio of kinetic constant (Kcat/KM) acting as donor substrate for gamma-GGT (Glutamyltranspeptidase)-mediated transpeptidation was determined in rat kidney; Inactive at 2 mM with 33.8 mU of GGT in rat kidney
[7] = target: Glutathione hydrolase 1 proenzyme (Rattus norvegicus) (UniProt P07314); experiment: Compound was tested for the mixed non-competitive inhibition of rat kidney gamma-glutamyltranspeptidase (gamma-GGT)
[8] = Ratio of kinetic constant (Kcat/KM) acting as donor substrate for gamma-GGT (Glutamyltranspeptidase)-mediated transpeptidation was determined in rat kidney; Inactive at 2 mM with 33.8 mU of GGT
[9] = target: Glutathione hydrolase 1 proenzyme (Rattus norvegicus) (UniProt P07314); experiment: Kinetic constant acting as donor substrate for gamma-GGT (Glutamyltranspeptidase)-mediated transpeptidation was determined in rat kidney (units are 10e3/min); Inactive at 2 mM with 33.8 mU of GGT; assay type: tissue-based
[10] = Ratio of kinetic constant (Kcat/KM) acting as acceptor substrate for gamma-GGT (Glutamyltranspeptidase)-mediated transpeptidation was determined in rat kidney; Solubility- Insoluble for concentration greater than 15 mM
[11] = target: Glutathione hydrolase 1 proenzyme (Rattus norvegicus) (UniProt P07314); experiment: Kinetic constant acting as acceptor substrate for gamma-GGT (Glutamyltranspeptidase)-mediated transpeptidation was determined in rat kidney (units are 10e3/min); Solubility- Insoluble for concentration greater than 15 mM; assay type: tissue-based
[12] = system: N[C@@H](CNC(=O)Nc1ccc([N+](=O)[O-])cc1)C(=O)O; experiment: (§1) Kinetic constant acting as donor substrate for gamma-GGT (Glutamyltranspeptidase)-mediated transpeptidation was determined; in rat kidney; Inactive at 2 mM with 33.8 mU of GGT
[13] = system: COC(=O)[C@@H](N)COC(=O)Nc1ccc([N+](=O)[O-])cc1; experiment: as §1
COC(=O)[C@@H](N)CO [14] = experiment: (§2) Kinetic constant acting as acceptor substrate for gamma-GGT (Glutamyltranspeptidase)-mediated transpeptidation was determined in rat kidney
[15] = system: COC(=O)[C@@H](N)CNC(=O)Nc1ccc([N+](=O)[O-])cc1; experiment: as §2
[16] = system: COC(=O)[C@@H](N)CCC(=O)Nc1ccc([N+](=O)[O-])cc1; experiment: as §2
[17] = system: COC(=O)[C@@H](N)COC(=O)Nc1ccc([N+](=O)[O-])cc1; experiment: as §2
[18] = system: N[C@@H](CCC(=O)Nc1ccc([N+](=O)[O-])cc1)C(=O)O; experiment: as §2
[19] = system: COC(=O)[C@@H](N)CCC(=O)Nc1ccc([N+](=O)[O-])cc1; experiment: (§3) Kinetic constant acting as donor substrate for GGT (gamma-Glutamyltranspeptidase)-mediated transpeptidation was determined in rat kidney; assay type: tissue-based
[20] = system: N[C@@H](CCC(=O)Nc1ccc([N+](=O)[O-])cc1)C(=O)O; experiment: as §3; assay type: tissue-based
[21] = system: N[C@@H](CNC(=O)Nc1ccc([N+](=O)[O-])cc1)C(=O)O; experiment: Kinetic constant acting as acceptor substrate for gamma-GGT (Glutamyltranspeptidase)-mediated transpeptidation was determined in rat kidney; Solubility- Insoluble for concentration greater than 15 mM
[22] = system: COC(=O)[C@@H](N)CNC(=O)Nc1ccc([N+](=O)[O-])cc1; experiment: Kinetic constant acting as donor substrate for gamma-GGT (Glutamyltranspeptidase)-mediated transpeptidation was determined; Inactive at 2 mM with 33.8 mU of GGT in rat kidney; assay type: tissue-based
COC(=O)[C@@H](N)CO [23] = experiment: Kinetic constant acting as donor substrate for gamma-GGT (Glutamyltranspeptidase)-mediated transpeptidation was determined in rat kidney; Not applicable
[24] = target: Glutathione hydrolase 1 proenzyme (Rattus norvegicus) (UniProt P07314); experiment: Kinetic constant acting as donor substrate for gamma-GGT (Glutamyltranspeptidase)-mediated transpeptidation was determined in rat kidney (units are 10e3/min); Not applicable; assay type: tissue-based
[25] = Ratio of kinetic constant (Kcat/KM) acting as donor substrate for gamma-GGT (Glutamyltranspeptidase)-mediated transpeptidation was determined in rat kidney; Not applicable

Glutathione hydrolase 1 proenzyme (Rattus norvegicus), P07314, sequence (P07314 whole entry): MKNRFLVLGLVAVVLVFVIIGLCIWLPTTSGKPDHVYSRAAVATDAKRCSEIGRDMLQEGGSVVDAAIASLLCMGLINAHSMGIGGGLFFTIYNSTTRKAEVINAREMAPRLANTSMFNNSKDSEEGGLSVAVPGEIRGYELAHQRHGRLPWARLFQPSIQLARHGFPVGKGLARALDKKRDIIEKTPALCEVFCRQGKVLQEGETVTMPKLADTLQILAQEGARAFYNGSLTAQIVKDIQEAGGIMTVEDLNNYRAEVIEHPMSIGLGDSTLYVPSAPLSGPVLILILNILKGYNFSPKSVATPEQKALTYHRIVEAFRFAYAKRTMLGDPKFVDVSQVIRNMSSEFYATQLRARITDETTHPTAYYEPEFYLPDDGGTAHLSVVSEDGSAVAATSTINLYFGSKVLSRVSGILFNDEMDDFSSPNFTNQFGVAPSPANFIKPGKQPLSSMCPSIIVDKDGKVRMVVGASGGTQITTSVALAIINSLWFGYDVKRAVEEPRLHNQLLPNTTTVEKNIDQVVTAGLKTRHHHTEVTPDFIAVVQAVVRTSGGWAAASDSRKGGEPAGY

k cat [1]: 25 s⁻¹
Ratio [2]: 270000
k cat [3]: 53.3 s⁻¹
Ratio [4]: 580000
Compound: COC(=O)[C@@H](N)CCC(=O)Nc1ccc([N+](=O)[O-])cc1

k cat [5]: inactive
k cat [3]: 102 s⁻¹
Ratio [4]: 1.4e+06
Ratio [6]: inactive
Compound: COC(=O)[C@@H](N)CNC(=O)Nc1ccc([N+](=O)[O-])cc1

k cat [1]: 1.15 s⁻¹
Ratio [2]: 1.5e+08
k cat [3]: 267 s⁻¹
Ratio [4]: 2.5e+06
Compound: N[C@@H](CCC(=O)Nc1ccc([N+](=O)[O-])cc1)C(=O)O

Ki' uncomp [7]: 1700 µM
Ratio [8]: inactive
k cat [9]: inactive
Ratio [10]: Insoluble
k cat [11]: Insoluble
Compound: N[C@@H](CNC(=O)Nc1ccc([N+](=O)[O-])cc1)C(=O)O

Ratio [8]: inactive
k cat [9]: inactive
k cat [3]: 80 s⁻¹
Ratio [4]: 3e+06
Compound: COC(=O)[C@@H](N)COC(=O)Nc1ccc([N+](=O)[O-])cc1

Compound: Glutathione hydrolase 1 proenzyme (Rattus norvegicus), P07314
Km [12]: Not Active
Km [13]: Not Active
Km (COC(=O)[C@@H](N)CO [14]): 34 mM
Km [15]: 4 mM
Km [16]: 6 mM
Km [17]: 1.5 mM
Km [18]: 6.3 mM
Km [19]: 5.7 mM
Km [20]: 0.47 mM
Km [21]: Insoluble
Km [22]: Not Active
Km (COC(=O)[C@@H](N)CO [23]): Not Active

k cat [24]: inactive
Ratio [25]: inactive
k cat [3]: 21.7 s⁻¹
Ratio [4]: 38000
Compound: COC(=O)[C@@H](N)CO
